Results reported in US20030229053A1, “Compounds and methods for the treatment or prevention of flavivirus infections” (Shire BioChem Inc., priority 2001, published 2003).

These compounds were tested against HCV NS5B RNA-dependent RNA polymerase (Hepatitis C virus genotype 1b, UniProt P26663) (assay: In vitro RNA-dependent RNA polymerase assay (Assay 1), polyA/oligo dT, TCA precipitation). Conditions: polyA/oligo dT template/primer, 200 ng NS5B, 2 h at 22° C.; read-out: RNA pol Assay 1 IC50 (μm).
Sequence of HCV NS5B RNA-dependent RNA polymerase (P26663 2420-3010 limits assumed): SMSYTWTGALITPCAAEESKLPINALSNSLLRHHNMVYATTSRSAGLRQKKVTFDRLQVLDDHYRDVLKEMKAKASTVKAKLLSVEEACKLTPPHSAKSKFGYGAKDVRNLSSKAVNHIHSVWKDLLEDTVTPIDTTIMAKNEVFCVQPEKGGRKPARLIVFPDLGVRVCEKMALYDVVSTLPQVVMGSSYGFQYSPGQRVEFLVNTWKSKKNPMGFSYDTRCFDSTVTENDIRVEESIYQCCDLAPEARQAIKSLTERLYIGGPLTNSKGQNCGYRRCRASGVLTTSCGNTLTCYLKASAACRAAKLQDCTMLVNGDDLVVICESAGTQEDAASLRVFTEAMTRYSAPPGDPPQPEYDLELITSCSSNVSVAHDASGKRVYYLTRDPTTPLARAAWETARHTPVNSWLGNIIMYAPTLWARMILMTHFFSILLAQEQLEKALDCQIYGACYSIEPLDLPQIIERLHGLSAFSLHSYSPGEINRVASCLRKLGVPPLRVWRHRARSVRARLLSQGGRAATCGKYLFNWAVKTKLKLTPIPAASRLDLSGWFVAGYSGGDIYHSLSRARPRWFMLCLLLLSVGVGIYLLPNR
Assay type: biochemical
How it was run: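 Purified NS5B (200 ng) on annealed polyA/oligo dT15 in 20 mM Tris-HCl pH 7.5, 50 mM NaCl, 5 mM MgCl2, 1 mM DTT, 15 µM cold UTP plus [32P]-UTP, 2 h at 22°C. Product TCA-precipitated, filtered onto glass-fibre and counted by liquid scintillation.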

`O=C(O)[C@H](Cc1ccccc1)N(Cc1cc(-c2ccc(Cl)cc2Cl)cs1)C(=O)c1ccc(Cl)cc1Cl` [compound #90, (2s) -2-{(2,4-Dichloro-benzoyl)-[4-(2,4-dichloro-phenyl)-thiophen-2-ylmethyl]-amino}-3-phenyl-propionic acid] and `O=C(O)[C@H](Cc1ccccc1)N(Cc1ccc(-c2ccc(Cl)cc2Cl)s1)C(=O)c1ccc(Cl)cc1Cl` [compound #93, (2s)-2-{(2,4-Dichloro-benzoyl)-[5-(2,4-dichloro-phenyl)-thiophen-2-ylmethyl]-amino}-3-phenyl-propionic acid] cannot be ordered by IC50: < 5 µM for the first, < 5 µM for the second.

`O=C(O)[C@H](Cc1ccccc1)N(Cc1ccc(-c2ccc(F)c(Cl)c2)s1)C(=O)c1ccc(Cl)cc1Cl` [compound #91, (2s)-2-[[5-(3-Chloro-4-fluoro-phenyl)-thiophen-2-ylmethyl]-(2,4-dichloro-benzoyl)-amino]-3-phenyl-propionic acid] and `O=C(O)[C@H](Cc1ccccc1)N(Cc1ccc(-c2ccc(Cl)c(F)c2)s1)C(=O)c1ccc(Cl)cc1Cl` [compound #92, (2s)-2-[[5-(4-chloro-3-fluoro-phenyl)-thiophen-2-ylmethyl]-(2,4-dichloro-benzoyl)-amino]-3-phenyl-propionic acid] cannot be ordered by IC50: < 5 µM for the first, < 5 µM for the second.

`O=C(O)[C@H](Cc1ccccc1)N(Cc1ccc(-c2nccs2)s1)C(=O)c1ccc(Cl)cc1Cl` [compound #94, (2s)-2-[(2,4-Dichloro-benzoyl)-(5-thiazol-2-yl-thiophen-2-ylmethyl)-amino]-3-phenyl-propionic acid] and `O=C(O)[C@H](Cc1ccccc1)N(Cc1ccc(-c2cccs2)s1)C(=O)c1ccc(Cl)cc1Cl` [compound #127, (2s)-2-[[2,2′]Bithiophenyl-5-ylmethyl-(2,4-dichloro-benzoyl)-amino]-3-phenyl-propionic acid] cannot be ordered by IC50: < 5 µM for the first, < 5 µM for the second.

`O=C(O)[C@H](Cc1ccccc1)N(Cc1ccc(-c2cc(F)cc(F)c2)s1)C(=O)c1ccc(Cl)cc1Cl` [compound #95, (2s)-2-{(2,4-Dichloro-benzoyl)-[5-(3,5-difluoro-phenyl)-thiophen-2-ylmethyl]-amino}-3-phenyl-propionic acid] and `O=C(O)[C@H](Cc1ccccc1)N(Cc1ccc(-c2cccc(F)c2)s1)C(=O)c1ccc(Cl)cc1Cl` [compound #97, (2s)-2-{(2,4-Dichloro-benzoyl)-[5-(3-fluoro-phenyl)-thiophen-2-ylmethyl]-amino}-3-phenyl-propionic acid] cannot be ordered by IC50: < 5 µM for the first, < 5 µM for the second.

`COc1cccc(-c2ccc(CN(C(=O)c3ccc(Cl)cc3Cl)[C@@H](Cc3ccccc3)C(=O)O)s2)c1` [compound #96, (2s)-2-{(2,4-Dichloro-benzoyl)-[5-(3-methoxy-phenyl)-thiophen-2-ylmethyl]-amino}-3-phenyl-propionic acid] and `O=C(O)c1cccc(-c2ccc(CN(C(=O)c3ccc(Cl)cc3Cl)[C@@H](Cc3ccccc3)C(=O)O)s2)c1` [compound #125, (2s)-3-(5-{[(1-Carboxy-2-phenyl-ethyl)-(2,4-dichloro-benzoyl)-amino]-methyl}-thiophen-2-yl)-benzoic acid] cannot be ordered by IC50: < 5 µM for the first, < 5 µM for the second.

`O=C(O)[C@H](Cc1ccccc1)N(Cc1cccs1)C(=O)c1ccc(Cl)cc1Cl` [compound #98, (2s)-2-[(2,4-Dichloro-benzoyl)-thiophen-2-ylmethyl-amino]-3-phenyl-propionic acid] and `O=C(O)[C@H](Cc1ccccc1)N(Cc1cc(Br)cs1)C(=O)c1ccc(Cl)cc1Cl` [compound #99, (2s)-2-[(4-Bromo-thiophen-2-ylmethyl)-(2,4-dichloro-benzoyl)-amino]-3-phenyl-propionic acid] cannot be ordered by IC50: < 5 µM for the first, < 5 µM for the second.

First: O=C(O)[C@H](Cc1ccccc1)N(Cc1cnc(N2CCN(c3ccccc3)CC2)s1)C(=O)c1ccc(Cl)cc1Cl [compound #100, (2s)-2-{(2,4-Dichloro-benzoyl)-[2-(4-phenyl-piperazin-1-yl)-thiazol-5-ylmethyl]-amino}-3-phenyl-propionic acid]
Second: O=C(O)[C@H](Cc1ccccc1)N(Cc1cnc(N2CCN(Cc3ccccc3)CC2)s1)C(=O)c1ccc(Cl)cc1Cl [compound #102, (2s)-2-[[2-(4-Benzyl-piperazin-1-yl)-thiazol-5-ylmethyl]-(2,4-dichloro-benzoyl)-amino]-3-phenyl-propionic acid]
The IC50 of the first is higher: 5 to 20 µM for the first, < 5 µM for the second. The second is the more potent here.

`O=C(O)[C@H](Cc1ccccc1)N(Cc1cnc(N2CCCCC2)s1)C(=O)c1ccc(Cl)cc1Cl` [compound #103, (2s)-2-[(2,4-Dichloro-benzoyl)-(2-piperidin-1-yl-thiazol-5-ylmethyl)-amino]-3-phenyl-propionic acid] and `CCN(CC)c1ncc(CN(C(=O)c2ccc(Cl)cc2Cl)[C@@H](Cc2ccccc2)C(=O)O)s1` [compound #104, (2s)-2-[(2,4-Dichloro-benzoyl)-(2-diethylamino-thiazol-5-ylmethyl)-amino]-3-phenyl-propionic acid] cannot be ordered by IC50: < 5 µM for the first, < 5 µM for the second.

`COc1cc(C)c(S(=O)(=O)N(Cc2c(C(=O)c3ccc(Cl)cc3)oc3ccccc23)[C@@H](Cc2ccccc2)C(=O)O)c(C)c1C` [compound #105, (2s)-2-[[2-(4-Chloro-benzoyl)-benzofuran-3-ylmethyl]-(4-methoxy-2,3,6-trimethyl-benzenesulfonyl)-amino]-3-phenyl-propionic acid] and `COc1cc(C)c(S(=O)(=O)N(Cc2c(C(F)(F)F)nn(C)c2Oc2ccc(Cl)cc2Cl)[C@@H](Cc2ccccc2)C(=O)O)c(C)c1C` [compound #106, (2s)-2-[[5-(2,4-Dichloro-phenoxy)-1-methyl-3-trifluoromethyl-1h-pyrazol-4-ylmethyl]-(4-methoxy-2,3,6-trimethyl-benzenesulfonyl)-amino]-3-phenyl-propionic acid] fall in the same range of IC50: 5 to 20 µM for the first, 5 to 20 µM for the second.

`O=C(CN(C(=O)c1ccc(Cl)cc1Cl)[C@@H](Cc1ccccc1)C(=O)O)c1ccc(-c2ccc(Cl)cc2Cl)o1` [compound #107, (2s)-2-((2,4-Dichloro-benzoyl)-{2-[5-(2,4-dichloro-phenyl)-furan-2-yl]-2-oxo-ethyl}-amino)-3-phenyl-propionic acid] and `O=C(O)[C@H](Cc1ccccc1)N(Cc1ccc(-c2cccc(Cl)c2)o1)C(=O)c1ccc(Cl)cc1Cl` [compound #123, (2s)-2-[[5-(3-Chloro-phenyl)-furan-2-ylmethyl]-(2,4-dichloro-benzoyl)-amino]-3-phenyl-propionic acid] cannot be ordered by IC50: < 5 µM for the first, < 5 µM for the second.

`C=CCN(C(=O)c1ccc(Cl)cc1Cl)[C@@H](Cc1ccccc1)C(=O)O` [compound #109, (2s)-2-[Allyl-(2,4-dichloro-benzoyl)-amino]-3-phenyl-propionic acid] and `CC(C)=CCN(C(=O)c1ccc(Cl)cc1Cl)[C@@H](Cc1ccccc1)C(=O)O` [compound #115, (2s)-2-[(2,4-Dichloro-benzoyl)-(3-methyl-but-2-enyl)-amino]-3-phenyl-propionic acid] fall in the same range of IC50: 5 to 20 µM for the first, 5 to 20 µM for the second.

Compared with `CN(C(=O)c1ccc(Cl)cc1Cl)[C@@H](Cc1ccccc1)C(=O)O` [compound #110, (2s)-2-[(2,4-Dichloro-benzoyl)-methyl-amino]-3-phenyl-propionic acid], `CCCN(C(=O)c1ccc(Cl)cc1Cl)[C@@H](Cc1ccccc1)C(=O)O` [compound #112, (2s)-2-[(2,4-Dichloro-benzoyl)-propyl-amino]-3-phenyl-propionic acid] is higher in IC50: 5 to 20 µM for the first, > 20 µM for the second.

`C#CCN(C(=O)c1ccc(Cl)cc1Cl)[C@@H](Cc1ccccc1)C(=O)O` [compound #111, (2s)-2-[(2,4-Dichloro-benzoyl)-prop-2-ynyl-amino]-3-phenyl-propionic acid] and `C=C(Br)CN(C(=O)c1ccc(Cl)cc1Cl)C(Cc1ccccc1)C(=O)O` (stereo not drawn) [compound #116, 2-[(2-Bromo-allyl)-(2,4-dichloro-benzoyl)-amino]-3-phenyl-propionic acid] fall in the same range of IC50: 5 to 20 µM for the first, 5 to 20 µM for the second.

`O=C(O)[C@H](Cc1ccccc1)N(CC#Cc1cc2ccccc2o1)C(=O)c1ccc(Cl)cc1Cl` [compound #113, (2s)-2-[(3-Benzofuran-2-yl-prop-2-ynyl)-(2,4-dichloro-benzoyl)-amino]-3-phenyl-propionic acid] and `O=C(O)[C@H](Cc1ccccc1)N(C(=O)c1ccc(Cl)cc1Cl)c1ccc(-c2cc3ccccc3o2)cc1` [compound #114, (2s)-2-[(4-Benzofuran-2-yl-phenyl)-(2,4-dichloro-benzoyl)-amino]-3-phenyl-propionic acid] cannot be ordered by IC50: < 5 µM for the first, < 5 µM for the second.

`O=C(O)[C@H](Cc1ccccc1)N(Cc1ccc(-c2ccccc2C(F)(F)F)o1)C(=O)c1ccc(Cl)cc1Cl` [compound #120, (2s)-2-{(2,4-Dichloro-benzoyl)-[5-(2-trifluoromethyl-phenyl)-furan-2-ylmethyl]-amino}-3-phenyl-propionic acid] and `O=C(O)[C@H](Cc1ccccc1)N(Cc1ccc(-c2ccc(Cl)s2)o1)C(=O)c1ccc(Cl)cc1Cl` [compound #126, (2s)-2-[[5-(5-Chloro-thiophen-2-yl)-furan-2-ylmethyl]-(2,4-dichloro-benzoyl)-amino]-3-phenyl-propionic acid] cannot be ordered by IC50: < 5 µM for the first, < 5 µM for the second.

`CCOC(=O)c1ccccc1-c1ccc(CN(C(=O)c2ccc(Cl)cc2Cl)[C@@H](Cc2ccccc2)C(=O)O)s1` [compound #121, (2s)-2-(5-{[(1s-1-Carboxy-2-phenyl-ethyl)-(2,4-dichloro-benzoyl)-amino]-methyl}-thiophen-2-yl)-benzoic acid ethyl ester] and `CCOC(=O)c1cccc(-c2ccc(CN(C(=O)c3ccc(Cl)cc3Cl)[C@@H](Cc3ccccc3)C(=O)O)s2)c1` [compound #122, 3-(5-{[(1s-1-Carboxy-2-phenyl-ethyl)-(2,4-dichloro-benzoyl)-amino]-methyl}-thiophen-2-yl)-benzoic acid ethyl ester] cannot be ordered by IC50: < 5 µM for the first, < 5 µM for the second.

For `O=C(O)[C@H](Cc1ccccc1)N(Cc1sc(Br)cc1Br)C(=O)c1ccc(Cl)cc1I` [compound #124, (2s)-2-[(4-Chloro-2-iodo-benzoyl)-(3,5-dibromo-thiophen-2-ylmethyl)-amino]-3-phenyl-propionic acid], the IC50 was < 5 µM.
